Consider two compounds from patent US20210000912A1, “Compositions And Methods For Prophylaxis Or Treatment Of Pain” (Interk Peptide Therapeutics Limited, priority 2017, published 2021).

One data set has as its target T1, PKG1α (h) (Homo sapiens, UniProt Q13976).
T1 construct: purchased Eurofins Pharma Discovery Services UK Ltd (contract assay service)
T1 sequence (Q13976 1-671): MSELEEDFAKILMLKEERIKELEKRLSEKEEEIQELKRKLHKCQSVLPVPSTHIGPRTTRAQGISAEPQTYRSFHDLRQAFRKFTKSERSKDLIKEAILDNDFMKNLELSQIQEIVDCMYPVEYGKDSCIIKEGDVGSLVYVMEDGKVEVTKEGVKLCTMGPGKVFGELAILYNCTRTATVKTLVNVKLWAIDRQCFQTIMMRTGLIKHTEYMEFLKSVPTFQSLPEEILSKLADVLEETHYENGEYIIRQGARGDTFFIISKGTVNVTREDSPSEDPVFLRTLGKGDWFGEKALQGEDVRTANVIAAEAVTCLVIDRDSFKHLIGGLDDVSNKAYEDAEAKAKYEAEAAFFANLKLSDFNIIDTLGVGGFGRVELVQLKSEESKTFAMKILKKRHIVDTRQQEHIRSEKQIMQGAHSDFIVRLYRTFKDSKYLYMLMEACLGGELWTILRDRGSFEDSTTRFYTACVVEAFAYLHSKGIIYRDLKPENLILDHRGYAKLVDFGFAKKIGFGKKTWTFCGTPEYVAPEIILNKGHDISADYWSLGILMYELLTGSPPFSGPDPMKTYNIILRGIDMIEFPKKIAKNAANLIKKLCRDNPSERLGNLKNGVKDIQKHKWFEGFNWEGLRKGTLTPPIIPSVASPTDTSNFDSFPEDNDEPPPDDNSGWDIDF
The experiment in a line: PKG1α kinase activity assay, cell free. It is filed as biochemical. Here is the method:
(§1) The capacity of test peptides to inhibit the activity of the kinases PKG1α, PKG1β, and Src family kinases in a cell free assay was assessed. The test peptides were amidated at their C-terminal end (indicated by “—NH2”) unless otherwise noted. Kinase activity assays were conducted by Eurofins Pharma Discovery Services UK Ltd (Dundee Technology Park, Dundee, United Kingdom) and Reaction Biology Corp. (Malvern, Pa., USA).
(§2) All test peptides are prepared to 50× final assay concentration in 100% DMSO. This working stock of the test compound is added to assay wells as the first component in the reaction, followed by the remaining components of the respective assay protocols described below. There is no pre-incubation step between the test peptide and the kinase prior to initiation of the reaction. The kinases are diluted in buffer (20 mM MOPS, 1 mM EDTA, 0.01% Brij-35, 5% Glycerol, 0.1% β-mercaptoethanol, 1 mg/mL BSA) prior to addition to the reaction mix.
(§3) Positive control wells contain all components of the reaction, except the test peptide of interest. However, DMSO (at a final concentration of 2%) is included in positive control wells to control for solvent effects. Negative control wells contain all components of the reaction, with a reference inhibitor (staurosporine) replacing the test peptide. This abolishes kinase activity and establishes a base-line (0% kinase activity). Kinase assay protocols (Eurofins Pharma Discovery Services UK Ltd, Dundee Technology Park, Dundee, United Kingdom) are described below. Of the Src family kinases, only the assay protocol for c-Src is shown.
PKG1α (h) is incubated with 8 mM MOPS pH 7.0, 0.2 mM EDTA, 10 μM cGMP, 200 μM peptide RRRLSFAEPG, 10 mM magnesium acetate and [γ-^33P]-ATP (specific activity approx. 500 cpm/pmol, concentration as required). The reaction is initiated by the addition of the MgATP mix. After incubation for 40 minutes at room temperature, the reaction is stopped by the addition of 3% phosphoric acid solution. A 10 μL aliquot of the reaction is then spotted onto a P30 filtermat and washed three times for 5 mins in 75 mM phosphoric acid and once in methanol prior to drying and scintillation counting.

The next data set deals with T2, PKG1β (h) (Homo sapiens, UniProt Q13976).
T2 construct: purchased Eurofins Pharma Discovery Services UK Ltd (contract assay service)
T2 sequence (Q13976 1-686 isoform Q13976-2): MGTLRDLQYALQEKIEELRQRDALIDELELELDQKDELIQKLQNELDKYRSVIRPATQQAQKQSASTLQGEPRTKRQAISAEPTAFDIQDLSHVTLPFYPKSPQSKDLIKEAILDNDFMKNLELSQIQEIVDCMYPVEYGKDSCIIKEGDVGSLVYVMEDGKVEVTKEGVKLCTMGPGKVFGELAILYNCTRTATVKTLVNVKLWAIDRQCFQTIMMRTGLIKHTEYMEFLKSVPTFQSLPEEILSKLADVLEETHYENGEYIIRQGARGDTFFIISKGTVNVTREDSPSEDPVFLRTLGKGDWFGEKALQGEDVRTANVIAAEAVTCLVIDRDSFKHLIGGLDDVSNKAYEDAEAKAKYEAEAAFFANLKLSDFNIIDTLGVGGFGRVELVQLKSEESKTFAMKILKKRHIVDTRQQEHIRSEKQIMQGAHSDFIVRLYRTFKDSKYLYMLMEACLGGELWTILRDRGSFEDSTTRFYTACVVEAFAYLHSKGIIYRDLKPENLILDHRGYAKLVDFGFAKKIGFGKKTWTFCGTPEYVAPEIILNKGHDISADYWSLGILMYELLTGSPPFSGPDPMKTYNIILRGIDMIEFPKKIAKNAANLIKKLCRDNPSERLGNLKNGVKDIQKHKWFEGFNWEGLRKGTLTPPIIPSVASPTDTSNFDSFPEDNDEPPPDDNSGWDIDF
Briefly: PKG1β kinase activity assay, cell free. It is filed as biochemical. Here is the method:
as §1, §2, §3
PKG1b(h) is incubated with 8 mM MOPS pH 7.0, 0.2 mM EDTA, 10 μM cGMP, 200 μM RRRLSFAEPG, 10 mM magnesium acetate and [γ-^33P]-ATP (specific activity approx. 500 cpm/pmol, concentration as required). The reaction is initiated by the addition of the MgATP mix. After incubation for 40 minutes at room temperature, the reaction is stopped by the addition of 3% phosphoric acid solution. A 10 μL aliquot of the reaction is then spotted onto a P30 filtermat and washed three times for 5 mins in 75 mM phosphoric acid and once in methanol prior to drying and scintillation counting.

Data set [1] is described as follows: Resistance to simulated gastric fluid. The format is in vitro ADME. Here is the method:
Test 14 Arg peptides consisting of 14 contiguous L- or D-arginine amino acids were tested for resistance to simulated gastric fluid (porcine pepsin in a HCl and NaCl solution) at a pH of 2.01 for a period of 24 hours. Negligible degradation of each peptide was observed by exposure to the simulated gastric fluid over the 24 hour test period.

A further data set has as its target T3, c-Src (h) (Homo sapiens, UniProt P12931).
T3 construct: purchased Eurofins Pharma Discovery Services UK Ltd (contract assay service)
The experiment in a line: c-Src kinase activity assay, cell free. It is filed as biochemical. Here is the method:
as §1, §2, §3
c-Src (h) is incubated with 8 mM MOPS pH 7.0, 0.2 mM EDTA, 250 μM KVEKIGEGTYGVVYK (Cdc2 peptide), 10 mM MgAcetate and [γ-^33P]-ATP (specific activity approx. 500 cpm/pmol, concentration as required). The reaction is initiated by the addition of the MgATP mix. After incubation for 40 minutes at room temperature, the reaction is stopped by the addition of 3% phosphoric acid solution. A 10 μL aliquot of the reaction is then spotted onto a P30 filtermat and washed three times for 5 minutes in 75 mM phosphoric acid and once in methanol prior to drying and scintillation counting.

For data set [2], the system named is CFA-injected mice. Briefly: CFA inflammatory pain model, incapacitance testing.
In data set [3] the test system is CFA-injected mice. Briefly: Grip strength testing in CFA study. It is filed as in vivo, C57Bl/6 mice. The note with it: intra-peritoneal, CFA study. Here is the method:
Forepaw grip strength was determined using a grip strength meter (DFIS-2 series digital force gauge, Columbus Instruments, Columbus, Ohio). The animals' forelimbs were placed on a horizontal bar connected to a force gauge. The animal was the gently pulled away from the bar and the peak force required for a release was recorded. Each mouse was tested 3 times, with a 1 min inter-trial interval (Martinez-Huenchullan, S. F., et al., “Utility and reliability of non-invasive muscle function tests in high-fat-fed mice”. Experimental Physiology, 2017. 102(7): p. 773-778). The average peak tension (g), and tension normalised to body weight were compared.

“Also recorded” adds a separate entry of the source.

T3 sequence (P12931 whole entry): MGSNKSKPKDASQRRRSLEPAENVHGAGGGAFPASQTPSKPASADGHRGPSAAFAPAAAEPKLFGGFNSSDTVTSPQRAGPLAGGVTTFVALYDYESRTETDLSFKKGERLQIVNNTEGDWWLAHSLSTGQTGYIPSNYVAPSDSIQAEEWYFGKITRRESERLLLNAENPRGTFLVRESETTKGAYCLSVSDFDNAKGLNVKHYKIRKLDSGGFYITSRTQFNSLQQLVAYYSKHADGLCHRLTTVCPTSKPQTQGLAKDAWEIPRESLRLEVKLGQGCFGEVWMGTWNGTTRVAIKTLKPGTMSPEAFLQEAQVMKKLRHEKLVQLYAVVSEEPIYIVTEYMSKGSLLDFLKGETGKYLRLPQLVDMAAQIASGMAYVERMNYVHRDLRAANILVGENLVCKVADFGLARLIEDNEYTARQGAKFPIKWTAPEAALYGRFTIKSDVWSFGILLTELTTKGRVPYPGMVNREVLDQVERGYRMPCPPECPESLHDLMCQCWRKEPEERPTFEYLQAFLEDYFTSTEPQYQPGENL

Turning to `N=C(N)NCCC[C@@H](N)C(=O)N[C@H](CCCNC(=N)N)C(=O)N[C@H](CCCNC(=N)N)C(=O)N[C@H](CCCNC(=N)N)C(=O)N[C@H](CCCNC(=N)N)C(=O)N[C@H](CCCNC(=N)N)C(=O)N[C@H](CCCNC(=N)N)C(=O)N[C@H](CCCNC(=N)N)C(=O)N[C@H](CCCNC(=N)N)C(=O)N[C@H](CCCNC(=N)N)C(=O)N[C@H](CCCNC(=N)N)C(=O)N[C@H](CCCNC(=N)N)C(=O)N[C@H](CCCNC(=N)N)C(=O)N[C@H](CCCNC(=N)N)C(N)=O` [IKD01400, rrrrrrrrrrrrrr-NH2], the half-inhibitory concentration (IC50) against PKG1α (h) worked out at 11 nM; against PKG1β (h) it was 10 nM; against c-Src (h), 6 nM. In addition, in data set [1] (pig, simulated gastric fluid with porcine pepsin, simulated gastric fluid pH 2.01, 1 hr, read-out: % of intact peptide observed), the remaining at 1 h is 98.9%. Moreover, in data set [1] (pig, simulated gastric fluid with porcine pepsin, simulated gastric fluid pH 2.01, 4 hrs, read-out: % of intact peptide observed), the remaining at 4 h is 98.7%. In addition, the remaining at 24 h in data set [1] (pig, simulated gastric fluid with porcine pepsin, simulated gastric fluid pH 2.01, 24 hrs, read-out: % of intact peptide observed) was 97.5%. Further, in data set [1] (simulated gastric fluid pH 2.01, time 0), the “% of intact peptide observed” value is given as 98.79%.

As for `CN1CC[C@]23c4c5ccc(O)c4O[C@H]2[C@@H](O)C=C[C@H]3[C@H]1C5` [morphine], the “effectiveness in incapacitance test, morphine versus IK01400, pooled data” value with CFA-injected mice [2] (first 30 minutes after injection) is reported as “more effective”. Further, the hyperactivity entry with CFA-injected mice [2] (mice, intra-peritoneal) is on record as “observed to induce hyperactivity”. Also, the “effectiveness in incapacitance test, morphine versus IK01400 (8.6 mg/kg)” value in the data set with CFA-injected mice [2] (second hour after administration) is reported as “less effective than IK01400; also recorded: reduced”. The “grip strength compared to vehicle control” value in the data set with CFA-injected mice [3] is reported as “increased grip strength”.
